Read-outs that look alike come from different tables or passages of the source.

Here are results for 22 compounds from article PMC10855552, “Hydrophilic Reduction-Resistant Spin Labels of Pyrrolidine and Pyrroline Series from 3,4-Bis-hydroxymethyl-2,2,5,5-tetraethylpyrrolidine-1-oxyl” (International Journal of Molecular Sciences, 2024).

Data set [1] in a line: Kinetics of nitroxide reduction with ascorbate in the presence of glutathione, followed by EPR. The format is physicochemical. Particulars: ascorbate 100–300 mM, glutathione 5 mM, 5 mM phosphate-citrate-borate buffer, pH 7.4, 25 °C; values are kred × 10^4. The procedure:
(§1) For kinetic measurements in water, stock solutions of nitroxide, ascorbic acid and glutathione in phosphate-citrate-borate buffer (5 mM, pH 7.4) were prepared, and pH was adjusted to 7.4 with NaOH or HCl. All the solutions were deoxygenated with argon, carefully and quickly mixed in a small tube to attain final concentrations (nitroxide, 0.2–04 mM; GSH, 5 mM; and ascorbate, 100–300 mM) and were placed into an EPR capillary (50 μL). The choice of acsorbate concentration is a compromise between the low reduction rate, which requires very long experiment time and deviations of the kinetics from linearity at higher ascorbate concentrations due to ionic strength effects. Since the ascorbate oxidation is slow under these conditions, the 5 mM concentration of GSH was sufficient to suppress the reverse reaction of ascorbate radical with the hydroxylamine, because the rate of the ascorbate radical formation was low. The increase in GSH concentration produced little effect on the final reduction rate constant values. The capillary was sealed on both sides and placed into the EPR resonator. The decay of amplitude of the low-field component of the EPR spectrum was followed to obtain the kinetics. The initial part of the decay curves (up to 20 min) was used for fitting. Kinetics of the decay was fitted to a monoexponential function to calculate the first-order rate constants. Then, these constants were divided by the concentration of ascorbic acid to calculate the second-order reaction constants. Partition coefficients in a water–octanol mixture were estimated from the amplitudes of the EPR spectra of a nitroxide in water after extensive shaking with different portions of added octanol and separation using centrifugation.

Data set [2] in a line: Partition in octanol/aqueous 5 mM phosphate-citrate-borate buffer pH 7.4, estimated from EPR amplitudes. It is filed as physicochemical. Particulars: for partition octanol/buffer, result in words: after shaking with buffer pH 7.4; for partition coefficient (Kp): octanol/aqueous 5 mM phosphate-citrate-borate buffer pH 7.4. The protocol: Partition in octanol-water mixtures for ionizable compounds may depend on pH, and the pH changes may result from addition of the compound. Therefore, phosphate-citrate-borate buffer (5 mM, pH 7.4) was used for Kp measurements to make the partition closer to physiological conditions. […] Although monoamino derivatives 11 and 13 mainly exist in protonated form at pH 7.4, they still remain lipophilic and, therefore, should permeate cells. Amino groups are known to provide higher retention/intracellular accumulation due to transmembrane potential or ion-trapping effect. This effect was exploited in design of nitroxide contrast agents for MRI and radioprotectors. Cellular accumulation of spin labels like 11 and 13 may help to increase efficacy spin labeling using CuAAC or SPAAC.
as §1

The nature of data set [3]: pH dependence of EPR spectra (titration), pK by fitting. The format is physicochemical. As to conditions: for pK (pH dependence of EPR spectra): amino group protonation, 5 mM phosphate-citrate-borate buffer, 25 °C; for pK, first protonation (free base to monocation): transition at high pH; for pK, first protonation (free base to monocation) / pKa, second protonation (monocation to dication): EPR titration; for pKa, second protonation (monocation to dication): transition at low pH. The protocol:
The pH-dependences of the EPR spectra were investigated using the 0.2 mM solutions of the nitroxides in 5 mM phosphate-citrate-borate buffer on a Bruker ER-200D-SRC spectrometer in 50 µL glass capillary for 0.2 mM radical solutions. Spectrometer settings: frequency, 9.87 GHz; microwave power, 5.0 mW; modulation amplitude, 0.1 mT; time constant, 50–100 ms; and conversion time, 50.12 ms. Small portions of 0.1–1 N HCl or 0.1–1 N NaOH were added to the stirred solution of a nitroxide in buffer at 25 °C, while the pH was controlled using pH-meter. After the equilibrium was established, the samples were taken from the solution and the EPR spectra were measured. The experimental points were fitted with the Equation (1) to obtain the pKa values. (1) aN(pH)=(p1+p2×10^pK1−pH+p3×10^pK1+pK2−2×pH)/1+10^pK1−pH+10^pK1+pK2−2×pH

Another data set in a line: Solubility in water. It is filed as physicochemical.
The conditions of data set [4]: values are kred × 10^4; cited from earlier work.

Regarding `CCC1(CC)C(CN=[N+]=[N-])C(Cn2nnc(C(=O)[O-])c2C(=O)O)C(CC)(CC)N1[O].[Na+]` (stereo not shown) [compound 20, 3-(Azidomethyl)-4-((4,5-dicarboxy-1H-1,2,3-triazol-1-yl)methyl)-2,2,5,5-tetraethylpyrrolidin-1-oxyl monosodium salt], the “kred × 10^4 (rate of reduction with ascorbate)” value in data set [1] came out at 5.9 ± 1.2 M^−1 s^−1. In addition, the “partition octanol/buffer, result in words” value (from here on “partition octanol/buffer”) in data set [2] is on record as “not detected in octanol”.
For `CCC1(CC)C(CN)C(CO)C(CC)(CC)N1[O]` (stereo not shown) [compound 6, 3-(Aminomethyl)-2,2,5,5-tetraethyl-4-(hydroxymethyl)pyrrolidin-1-oxyl], the “pK (pH dependence of EPR spectra)” value in data set [3] is on record as “ca. 9”.
For `CCC1(CC)C(CO)C(CN2C(=O)C=CC2=O)C(CC)(CC)N1[O]` (stereo not shown) [compound 7, 3-((2,5-Dioxo-2,5-dihydro-1H-pyrrol-1-yl)methyl)-2,2,5,5-tetraethyl-4-(hydroxymethyl)pyrrolidin-1-oxyl], the solubility in water entry in the data set “Solubility in water” was “poorly soluble in water”. The “partition coefficient (Kp)” value in data set [2] is 84 ± 2.
For the compound `CCC1(CC)C(CN=[N+]=[N-])C(CNC(=O)OC(C)(C)C)C(CC)(CC)N1[O]` (stereo not shown) [compound 10, 3-(Azidomethyl)-4-((tert-butoxycarbonylamino)methyl)-2,2,5,5-tetraethylpyrrolidin-1-oxyl], the “kred × 10^4 (rate of reduction with ascorbate)” value in data set [1] is on record as 3.0 ± 1.0 M^−1 s^−1.
Take “3-(Azidomethyl)-2,2,5,5-tetraethyl-4-((trimethylammonio)methyl)-2,5-dihydro-1H-pyrrol-1-oxyl monoiodide [17b]”: the “kred × 10^4 (rate of reduction with ascorbate)” value in data set [1] worked out at 16 ± 3.0 M^−1 s^−1. Besides, in data set [2], the “partition octanol/buffer” value was “not detected in octanol”.
Consider `CCC1(CC)C(CN)C(CN=[N+]=[N-])C(CC)(CC)N1[O]` (stereo not shown) [13a, 3-(Aminomethyl)-4-(azidomethyl)-2,2,5,5-tetraethylpyrrolidin-1-oxyl], for which, in data set [3], the “pK (pH dependence of EPR spectra)” value is listed as “ca. 9”. In addition, the “kred × 10^4 (rate of reduction with ascorbate)” value in data set [1] is listed as 6.3 ± 0.9 M^−1 s^−1. Besides, the “partition coefficient (Kp)” value in data set [2] was 350 ± 35.
`CCC1(CC)C(CO)C(CN=[N+]=[N-])C(CC)(CC)N1[O]` (stereo not shown) [compound 5, 3-(Azidomethyl)-2,2,5,5-tetraethyl-4-(hydroxymethyl)pyrrolidin-1-oxyl]: the solubility in water result in “Solubility in water” was “poorly soluble in water”.
In the case of `CCC1(CC)C(CNC(=O)OC(C)(C)C)C(COS(C)(=O)=O)C(CC)(CC)N1[O]` (stereo not shown) [compound 9, 3-(((tert-Butoxycarbonyl)amino)methyl)-2,2,5,5-tetraethyl-4-(((methylsulfonyl)oxy)methyl)pyrrolidin-1-oxyl], in data set [1], the “kred × 10^4 (rate of reduction with ascorbate)” value is given as 3.0 ± 1.0 M^−1 s^−1.
For `CCC1(CC)C(CN=[N+]=[N-])=C(CN(C)C)C(CC)(CC)N1[O]` [11b, 3-(Azidomethyl)-4-((dimethylamino)methyl)-2,2,5,5-tetraethyl-2,5-dihydro-1H-pyrrol-1-oxyl], the “pK (pH dependence of EPR spectra)” value in data set [3] is “ca. 9”. Moreover, in data set [1], the “kred × 10^4 (rate of reduction with ascorbate)” value was 15 ± 4.0 M^−1 s^−1. For the same compound, in data set [2], the “partition coefficient (Kp)” value is 15 ± 1.
For “3-((2,5-Dioxo-2,5-dihydro-1H-pyrrol-1-yl)methyl)-2,2,5,5-tetraethyl-4-((trimethylammonio)methyl)-2,5-dihydro-1H-pyrrol-1-oxyl monoiodide [16b]”, in data set [2], the “partition octanol/buffer” value was “not detected in octanol”.
For `CCC1(CC)C(CO)C(CNC(=O)OC(C)(C)C)C(CC)(CC)N1[O]` (stereo not shown) [compound 8, 3-(((tert-Butoxycarbonyl)amino)methyl)-2,2,5,5-tetraethyl-4-(hydroxymethyl)pyrrolidin-1-oxyl], the “kred × 10^4 (rate of reduction with ascorbate)” value in data set [1] is on record as 6.0 ± 2.0 M^−1 s^−1.
For the compound `CCC1(CC)C(CO)C(CO)C(CC)(CC)N1[O]` (stereo not shown) [compound 1, 3,4-bis-hydroxymethyl-2,2,5,5-tetraethylpyrrolidine-1-oxyl], the “kred × 10^4 (rate of reduction with ascorbate)” value in data set [4] is 3.3 ± 0.8 [26] M^−1 s^−1. The “partition coefficient (Kp)” value in data set [2] was 41 ± 2.
Take `CCC1(CC)C(CN(C)C)=C(CN2C(=O)C=CC2=O)C(CC)(CC)N1[O]` [15b, 3-((Dimethylamino)methyl)-4-((2,5-dioxo-2,5-dihydro-1H-pyrrol-1-yl)methyl)-2,2,5,5-tetraethyl-2,5-dihydro-1H-pyrrol-1-oxyl]: the “pK (pH dependence of EPR spectra)” value in data set [3] is reported as “ca. 9”.
`CCC1(CC)C(CN)=C(CN(C)C)C(CC)(CC)N1[O]` [14b, 3-(Aminomethyl)-4-((dimethylamino)methyl)-2,2,5,5-tetraethyl-2,5-dihydro-1H-pyrrol-1-oxyl]: in data set [3], the “pK, first protonation (free base to monocation)” value is “ca. 11” and the “pKa, second protonation (monocation to dication)” value is recorded as “ca. 3”. In data set [1], the “kred × 10^4 (rate of reduction with ascorbate)” value was determined as 8 ± 1.0 M^−1 s^−1. Further, the “partition coefficient (Kp)” value in data set [2] is reported as 7 ± 0.3.
Take `CCC1(CC)C(CO)=C(CO)C(CC)(CC)N1[O]` [compound 22, 2,2,5,5-tetraethyl-3,4-bis(hydroxymethyl)-2,5-dihydro-1H-pyrrol-1-oxyl, reference compound]: in data set [1], the “kred × 10^4 (rate of reduction with ascorbate)” value is 3.4 ± 0.1 M^−1 s^−1. Moreover, the “partition coefficient (Kp)” value in data set [2] is 37 ± 2.
Consider `CCC1(CC)C(CN=[N+]=[N-])C(CN(C)C)C(CC)(CC)N1[O]` (stereo not shown) [11a, 3-(Azidomethyl)-4-((dimethylamino)methyl)-2,2,5,5-tetraethylpyrrolidin-1-oxyl], for which the “pK (pH dependence of EPR spectra)” value in data set [3] is “ca. 9”. Moreover, the “kred × 10^4 (rate of reduction with ascorbate)” value in data set [1] amounted to 4.0 ± 1.0 M^−1 s^−1. In data set [2], the “partition coefficient (Kp)” value is reported as 52 ± 5.
Take `CCC1(CC)C(CN)C(CN(C)C)C(CC)(CC)N1[O]` (stereo not shown) [14a, 3-(Aminomethyl)-4-((dimethylamino)methyl)-2,2,5,5-tetraethylpyrrolidin-1-oxyl]: in data set [3], the “pK, first protonation (free base to monocation)” value was “ca. 11”. Besides, the “pKa, second protonation (monocation to dication)” value in data set [3] is recorded as “ca. 3”; in data set [3] (listed as N,N-dimethyl-3,4-bis-(aminomethyl)-2,2,5,5-tetraethylpyrrolidine-1-oxyl), 3. Moreover, in data set [1], the “kred × 10^4 (rate of reduction with ascorbate)” value was determined as 6.4 ± 1.0 M^−1 s^−1.
In the case of `CCC1(CC)C(CN)=C(CN=[N+]=[N-])C(CC)(CC)N1[O]` [13b, 3-(Aminomethyl)-4-(azidomethyl)-2,2,5,5-tetraethyl-2,5-dihydro-1H-pyrrol-1-oxyl], the “pK (pH dependence of EPR spectra)” value in data set [3] is recorded as “ca. 9”. In addition, the “kred × 10^4 (rate of reduction with ascorbate)” value in data set [1] was 7.6 ± 0.3 M^−1 s^−1. In data set [2], the “partition coefficient (Kp)” value is on record as 45 ± 2.
As for “3-((2,5-Dioxo-2,5-dihydro-1H-pyrrol-1-yl)methyl)-2,2,5,5-tetraethyl-4-((trimethylammonio)methyl)pyrrolidin-1-oxyl monoiodide [16a]”, the “partition octanol/buffer” value in data set [2] is “not detected in octanol”.
For `CCC1(CC)CC(C(=O)O)C(CC)(CC)N1[O]` (stereo not shown) [compound 21, 3-carboxy-2,2,5,5-tetraethylpyrrolidine-1-oxyl, reference compound], the “kred × 10^4 (rate of reduction with ascorbate)” value in data set [4] is 12.5 ± 0.3 [22] M^−1 s^−1. The “partition coefficient (Kp)” value in data set [2] is 270.
On to “3-(Azidomethyl)-2,2,5,5-tetraethyl-4-((trimethylammonio)methyl)pyrrolidin-1-oxyl monoiodide [17a]”, for which the “kred × 10^4 (rate of reduction with ascorbate)” value in data set [1] amounted to 3.0 ± 1.0 M^−1 s^−1. For the same compound, in data set [2], the “partition octanol/buffer” value was “not detected in octanol”.
`CCC1(CC)C(CN(C)C)C(CN2C(=O)C=CC2=O)C(CC)(CC)N1[O]` (stereo not shown) [15a, 3-((Dimethylamino)methyl)-4-((2,5-dioxo-2,5-dihydro-1H-pyrrol-1-yl)methyl)-2,2,5,5-tetraethylpyrrolidin-1-oxyl]: the “pK (pH dependence of EPR spectra)” value in data set [3] is “ca. 9”.
